Assays:
[1] = molecular target: T1, human adenosine A1 receptor (Homo sapiens, UniProt P30542); experiment: [3H]-DPCPX binding assay, human adenosine A1 receptor (SPA, CHO cell membranes); details: recombinant human A1 in CHO membranes; [3H]-DPCPX 0.6 nM; Ki by Cheng-Prussoff; read-out: hA1 (pKi) (converted)
T1 construct: expressed in transfected cells; host or cells: CHO cells, Semliki Forest virus expression system; membrane preparation
T1 sequence (P30542 1-326): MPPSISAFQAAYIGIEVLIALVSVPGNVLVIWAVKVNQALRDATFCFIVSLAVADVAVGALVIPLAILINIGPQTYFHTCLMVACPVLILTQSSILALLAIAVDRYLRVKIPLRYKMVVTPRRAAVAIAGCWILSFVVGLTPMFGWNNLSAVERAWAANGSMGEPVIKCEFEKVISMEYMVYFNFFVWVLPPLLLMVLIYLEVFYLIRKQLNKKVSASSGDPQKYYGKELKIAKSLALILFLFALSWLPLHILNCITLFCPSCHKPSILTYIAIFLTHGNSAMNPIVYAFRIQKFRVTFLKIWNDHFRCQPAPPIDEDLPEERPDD
Protocol: Human Adenosine A1 Receptor
(§1) The human adenosine A1 receptor was recombinantly expressed in chinese hamster ovary (CHO) cells using the semlilki forest virus expression system. Cells were harvested, washed twice by centrifugation, homogenized and again washed by centrifugation. The final washed membrane pellet was suspended in a Tris (50 mM) buffer containing 120 mM NaCl, 5 mM KCl, 2 mM CaCl2 and 10 mM MgCl2 (pH 7.4) (buffer A). The [^3H]-DPCPX (([propyl-^3H]8-cyclopentyl-1,3-dipropyxanthine); 0.6 nM) binding assay was carried out in 96-well plates in the presence of 2.5 μg of membrane protein, 0.5 mg of Ysi-poly-l-lysine SPA beads and 0.1 U adenosine deaminase in a final volume of 200 μl of buffer A. Non-specific binding was defined using xanthine amine congener (XAC; 2 μM). Compounds were tested at 10 concentrations from 10 μM-0.3 nM. All assays were conducted in duplicate and repeated at least two times. Assay plates were incubated for 1 hour at room temperature before centrifugation and then bound ligand determined using a Packard Topcount scintillation counter. IC50, the concentration where 50% of the […] binding is displaced, values were calculated using a non-linear curve fitting program and ki values calculated using the Cheng-Prussoff equation.

[2] = molecular target: T2, human adenosine A2A receptor (Homo sapiens, UniProt P29274); experiment: [3H]-SCH-58261 binding assay, human adenosine A2A receptor (SPA, CHO cell membranes); details: recombinant human A2A in CHO membranes; [3H]-SCH-58261 1 nM; Ki by Cheng-Prussoff; read-out: hA2 (pKi) (converted)
T2 construct: expressed in transfected cells; host or cells: CHO cells, Semliki Forest virus expression system; membrane preparation
Protocol: Human Adenosine A2A Receptor
as §1, with “adenosine A2A” for “adenosine A1”, “(buffer A)” for “(buffer A).”, “The [^3H]-SCH-58261 (Dionisotti et al., 1997, Br J Pharmacol 121, 353; 1” for “The [^3H]-DPCPX (([propyl-^3H]8-cyclopentyl-1,3-dipropyxanthine); 0.6”, “counter. IC50 values,” for “counter. IC50,”, “displaced,” for “displaced, values”, “and Ki” for “and ki”

T2 sequence (P29274 whole entry): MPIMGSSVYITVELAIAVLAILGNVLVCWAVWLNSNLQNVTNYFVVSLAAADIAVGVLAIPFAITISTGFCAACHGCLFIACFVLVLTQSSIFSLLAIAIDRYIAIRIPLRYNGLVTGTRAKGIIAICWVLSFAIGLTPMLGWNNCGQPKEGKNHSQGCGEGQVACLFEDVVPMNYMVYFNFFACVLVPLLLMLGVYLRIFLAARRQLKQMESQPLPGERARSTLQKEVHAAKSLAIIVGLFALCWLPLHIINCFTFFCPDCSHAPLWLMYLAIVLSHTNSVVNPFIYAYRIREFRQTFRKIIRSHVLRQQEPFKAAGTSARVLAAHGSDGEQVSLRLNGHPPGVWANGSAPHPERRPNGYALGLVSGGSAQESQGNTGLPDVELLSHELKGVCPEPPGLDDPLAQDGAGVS

Row | Structure (SMILES) | Ki [1] | Ki [2] | melting point
1 | COc1ccc(N2CCOCC2)c2sc(C(=O)NC(C)c3nc(C)cs3)nc12 (stereo not drawn) [Example 77, 4-Methoxy-7-morpholin-4-yl-benzothiazole-2-carboxylic acid [1-(4-methyl-thiazol-2-yl)-ethyl]-amide] | 501 nM | 5.01 nM | 175 to 176 °C
2 | COc1ccc(N2CCOCC2)c2sc(C(=O)NCCc3cccnc3)nc12 [Example 55, 4-Methoxy-7-morpholin-4-yl-benzothiazole-2-carboxylic acid (2-pyridin-3-yl-ethyl)-amide] | 6310 nM | 25.1 nM | 160 to 163 °C
3 | COc1ccc(N2CCOCC2)c2sc(C(=O)NCCc3cccs3)nc12 [Example 22, 4-Methoxy-7-morpholin-4-yl-benzothiazole-2-carboxylic acid (2-thiophen-2-yl-ethyl)-amide] | 1260 nM | 3.98 nM | 120 to 121 °C
4 | COc1ccc(N2CCOCC2)c2sc(C(=O)NCCc3ccc(F)cc3)nc12 [Example 59, 4-Methoxy-7-morpholin-4-yl-benzothiazole-2-carboxylic acid [2-(4-fluoro-phenyl)-ethyl]-amide] | 6310 nM | – | 150 to 153 °C
5 | COc1ccc(N2CCOCC2)c2sc(C(=O)NCc3ccccn3)nc12 [Example 13, 4-Methoxy-7-morpholin-4-yl-benzothiazole-2-carboxylic acid (pyridin-2-ylmethyl)-amide] | 6310 nM | – | 181 to 182 °C
6 | COc1ccccc1CNC(=O)c1nc2c(OC)ccc(N3CCOCC3)c2s1 [Example 25, 4-Methoxy-7-morpholin-4-yl-benzothiazole-2-carboxylic acid 2-methoxy-benzylamide] | 7940 nM | 25.1 nM | 186 to 188 °C
7 | COc1ccc(N2CCOCC2)c2sc(C(=O)NCc3cccc(Cl)c3)nc12 [Example 15, 4-Methoxy-7-morpholin-4-yl-benzothiazole-2-carboxylic acid 3-chloro-benzylamide] | 2510 nM | 20 nM | 148 to 150 °C
8 | COc1ccc(N2CCOCC2)c2sc(C(=O)NC(C)Cc3cccs3)nc12 (stereo not drawn) [Example 81, 4-Methoxy-7-morpholin-4-yl-benzothiazole-2-carboxylic acid (1-methyl-2-thiophen-2-yl-ethyl)-amide] | 200 nM | 1.26 nM | 127 to 129 °C
9 | COc1ccc(N2CCOCC2)c2sc(C(=O)Nc3cccnc3)nc12 [Example 9, 4-Methoxy-7-morpholin-4-yl-benzothiazole-2-carboxylic acid pyridin-3-ylamide] | 3980 nM | 15.8 nM | 220 to 221 °C
10 | COc1ccc(N2CCOCC2)c2sc(C(=O)NCCc3ccc(Cl)cc3)nc12 [Example 62, 4-Methoxy-7-morpholin-4-yl-benzothiazole-2-carboxylic acid [2-(4-chloro-phenyl)-ethyl]-amide] | 2000 nM | – | 153 to 154 °C
11 | COc1ccc(N2CCOCC2)c2sc(C(=O)NCCc3cccc(Cl)c3)nc12 [Example 65, 4-Methoxy-7-morpholin-4-yl-benzothiazole-2-carboxylic acid [2-(3-chloro-phenyl)-ethyl]-amide] | 501 nM | 25.1 nM | 109 to 111 °C
12 | COc1ccc(N2CCOCC2)c2sc(C(N)=O)nc12 [Example 1, 4-Methoxy-7-morpholin-4-yl-benzothiazole-2-carboxylic Acid Amide] | 3980 nM | 25.1 nM | 228 to 230 °C
13 | COc1ccc(N2CCOCC2)c2sc(C(=O)NCCc3ccccc3Cl)nc12 [Example 63, 4-Methoxy-7-morpholin-4-yl-benzothiazole-2-carboxylic acid [2-(2-chloro-phenyl)-ethyl]-amide] | 1000 nM | 20 nM | 141 to 143 °C
14 | COc1cccc(CCNC(=O)c2nc3c(OC)ccc(N4CCOCC4)c3s2)c1 [Example 64, 4-Methoxy-7-morpholin-4-yl-benzothiazole-2-carboxylic acid [2-(3-methoxy-phenyl)-ethyl] amide] | 1260 nM | 25.1 nM | 99 to 101 °C
15 | COc1ccc(N2CCOCC2)c2sc(C(=O)NCC(=O)c3sccc3Cl)nc12 [Example 73, 4-Methoxy-7-morpholin-4-yl-benzothiazole-2-carboxylic acid [2-(3-chloro-thiophen-2-yl)-2-oxo-ethyl]-amide] | 1580 nM | – | 125 to 127 °C
16 | COc1ccccc1CCNC(=O)c1nc2c(OC)ccc(N3CCOCC3)c2s1 [Example 49, 4-Methoxy-7-morpholin-4-yl-benzothiazole-2-carboxylic acid [2-(2-methoxy-phenyl)-ethyl]-amide] | 1580 nM | – | 158 to 160 °C
17 | COc1ccc(N2CCOCC2)c2sc(C(=O)NCCc3ccsc3)nc12 [Example 54, 4-Methoxy-7-morpholin-4-yl-benzothiazole-2-carboxylic acid (2-thiophen-3-yl-ethyl)-amide] | 1260 nM | 6.31 nM | 137 to 139 °C
18 | COc1ccc(N2CCOCC2)c2sc(C(=O)NCCc3cccc(F)c3)nc12 [Example 57, 4-Methoxy-7-morpholin-4-yl-benzothiazole-2-carboxylic acid [2-(3-fluoro-phenyl)-ethyl]-amide] | 1580 nM | 20 nM | 120 to 122 °C
19 | COc1ccc(N2CCOCC2)c2sc(C(=O)NCc3ccccc3Cl)nc12 [Example 16, 4-Methoxy-7-morpholin-4-yl-benzothiazole-2-carboxylic acid 2-chloro-benzylamide] | 3980 nM | – | 114 to 116 °C
20 | COc1ccc(N2CCOCC2)c2sc(C(=O)NCCc3cccc(C)c3)nc12 [Example 71, 4-Methoxy-7-morpholin-4-yl-benzothiazole-2-carboxylic acid (2-m-tolyl-ethyl)-amide] | 1260 nM | 25.1 nM | 119 to 121 °C
21 | COc1ccc(N2CCOCC2)c2sc(C(=O)NCCc3ccccc3)nc12 [Example 6, 4-Methoxy-7-morpholin-4-yl benzothiazole-2-carboxylic acid phenethyl-amide] | 1260 nM | 20 nM | 50 to 51 °C

Source: patent US6596718B1, “7-Morpholin-4yl-benzothiazole amide derivatives” (Hoffmann-La Roche Inc., priority 2001, dated 2003)
